Data from patent US20260285850A1, “SUBSTITUTED OXAZOLIDINONES AND IMIDAZOLINONES AS HERBICIDES” (FMC CORPORATION, priority 2023, published 2026).

How the values were obtained:
Assay type in all cases: in vivo
[1] = test system: barnyardgrass (Echinochloa crus-galli); test: Test A preemergence soil spray, visual injury rating 0-100; conditions: 10 days
Summary of the method: (§1)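 Seeds sown in loam-sand blend got a preemergence directed soil spray, or emerged plants (2-10 cm, one- to two-leaf) got a postemergence spray, of compound in non-phytotoxic solvent with surfactant. After 10 days in greenhouse, injury rated visually versus untreated controls on a 0 (no effect) to 100 (complete control) scale.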

[2] = test system: blackgrass (Alopecurus myosuroides); test: as above; conditions: 10 days
Summary of the method: as §1

[3] = test system: corn (Zea mays); test: as above; conditions: 10 days
Summary of the method: as §1

[4] = test system: green foxtail (Setaria viridis); test: as above; conditions: 10 days
Summary of the method: as §1

[5] = test system: kochia (Bassia scoparia); test: as above; conditions: 10 days
Summary of the method: as §1

[6] = test system: oat, wild (wild oat, Avena fatua); test: as above; conditions: 10 days
Summary of the method: as §1

[7] = test system: palmer (palmer amaranth, palmer pigweed, Amaranthus palmeri); test: as above; conditions: 10 days
Summary of the method: as §1

[8] = test system: ragweed (common ragweed, Ambrosia artemisiifolia); test: as above; conditions: 10 days
Summary of the method: as §1

[9] = test system: ryegrass, Italian (italian ryegrass, Lolium multiflorum); test: as above; conditions: 10 days
Summary of the method: as §1

[10] = test system: soybean (Glycine max); test: as above; conditions: 10 days
Summary of the method: as §1

[11] = test system: wheat (Triticum aestivum); test: as above; conditions: 10 days
Summary of the method: as §1

[12] = test system: barnyardgrass (Echinochloa crus-galli); test: Test A postemergence application, visual injury rating 0-100
Summary of the method: as §1

[13] = test system: blackgrass (Alopecurus myosuroides); test: as above
Summary of the method: as §1

[14] = test system: corn (Zea mays); test: as above
Summary of the method: as §1

[15] = test system: galium (catchweed bedstraw, Galium aparine); test: as above; conditions: Postemergence, 16 g ai/ha, greenhouse 10 days; 0 no effect, 100 complete control
Summary of the method: as §1

[16] = test system: green foxtail (Setaria viridis); test: as above
Summary of the method: as §1

[17] = test system: horseweed (Erigeron canadensis); test: as above
Summary of the method: as §1

[18] = test system: kochia (Bassia scoparia); test: as above
Summary of the method: as §1

[19] = test system: oat, wild (wild oat, Avena fatua); test: as above
Summary of the method: as §1

[20] = test system: palmer (palmer amaranth, palmer pigweed, Amaranthus palmeri); test: as above
Summary of the method: as §1

[21] = test system: ragweed (common ragweed, Ambrosia artemisiifolia); test: as above
Summary of the method: as §1

[22] = test system: ryegrass, Italian (italian ryegrass, Lolium multiflorum); test: as above
Summary of the method: as §1

[23] = test system: soybean (Glycine max); test: as above
Summary of the method: as §1

[24] = test system: wheat (Triticum aestivum); test: as above
Summary of the method: as §1

[25] = test system: barnyardgrass (Echinochloa crusgalli); test: Test B flooded paddy test, visual plant response rating 0-100; conditions: 250 g ai/ha, Flood, applied to paddy water, evaluated after 13 days
Summary of the method: (§2)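 In this flooded assay, 2-leaf seedlings received compound through the water layer, kept at 3 cm over the soil. Plants were held 13 days in a greenhouse and then visually compared with control pots.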

[26] = test system: ducksalad (Heteranthera limosa); test: as above; conditions: 250 g ai/ha, Flood, applied to paddy water, evaluated after 13 days
Summary of the method: as §2

[27] = test system: rice (Oryza sativa); test: as above; conditions: 250 g ai/ha, Flood, applied to paddy water, evaluated after 13 days
Summary of the method: as §2

[28] = test system: sedge, umbrella (small-flower umbrella sedge, Cyperus difformis); test: as above; conditions: 250 g ai/ha, Flood, applied to paddy water, evaluated after 13 days
Summary of the method: as §2

[29] = 62 g ai/ha, 0 = no effect, 100 = complete control
[30] = 62 g ai/ha, postemergence, 10 days, 0 = no effect, 100 = complete control
[31] = Postemergence, 16 g ai/ha, greenhouse 10 days, 0 no effect, 100 complete control

CSCCOC(=O)C1=CCC(NC(=O)C2(C)CN(c3cc(Cl)cc(Cl)c3)C(=O)O2)C1 (stereo not drawn) [Compound 146]
Barnyardgrass plant response rating ([1]; 16 g ai/ha, 0 to 100 scale): 0
Barnyardgrass plant response rating (0-100) [1, 29]: 0
Blackgrass plant response rating ([2]; 16 g ai/ha, 0 to 100 scale): 0
Blackgrass plant response rating (0-100) [2, 29]: 0
Corn plant response rating ([3]; 16 g ai/ha, 0 to 100 scale): 0
Corn plant response rating (0-100) [3, 29]: 0
Foxtail, Green plant response rating ([4]; 16 g ai/ha, 0 to 100 scale): 0
Foxtail, Green plant response rating (0-100) [4, 29]: 0
Kochia plant response rating ([5]; 16 g ai/ha, 0 to 100 scale): 0
Kochia plant response rating (0-100) [5, 29]: 0
Oat, Wild plant response rating ([6]; 16 g ai/ha, 0 to 100 scale): 0
Oat, Wild plant response rating (0-100) [6, 29]: 0
Pigweed, Palmer plant response rating ([7]; 16 g ai/ha, 0 to 100 scale): 0
Pigweed, Palmer plant response rating (0-100) [7, 29]: 0
Ragweed plant response rating ([8]; 16 g ai/ha, 0 to 100 scale): 0
Ragweed plant response rating (0-100) [8, 29]: 0
Ryegrass, Italian plant response rating ([9]; 16 g ai/ha, 0 to 100 scale): 0
Ryegrass, Italian plant response rating (0-100) [9, 29]: 20
Soybean plant response rating ([10]; 16 g ai/ha, 0 to 100 scale): 0
Soybean plant response rating (0-100) [10, 29]: 0
Wheat plant response rating ([11]; 16 g ai/ha, 0 to 100 scale): 0
Wheat plant response rating (0-100) [11, 29]: 0
Barnyardgrass plant response rating (0-100) [12, 30]: 20
Barnyardgrass plant response rating (0 to 100 scale) [12, 31]: 0
Blackgrass plant response rating (0-100) [13, 30]: 0
Blackgrass plant response rating (0 to 100 scale) [13, 31]: 0
Corn plant response rating (0-100) [14, 30]: 0
Corn plant response rating (0 to 100 scale) [14, 31]: 0
Galium plant response rating (0 to 100 scale) [15]: 0
Foxtail, Green plant response rating (0-100) [16, 30]: 0
Foxtail, Green plant response rating (0 to 100 scale) [16, 31]: 0
Horseweed plant response rating (0-100) [17, 30]: 10
Horseweed plant response rating (0 to 100 scale) [17, 31]: 0
Kochia plant response rating (0-100) [18, 30]: 0
Kochia plant response rating (0 to 100 scale) [18, 31]: 0
Oat, Wild plant response rating (0-100) [19, 30]: 0
Oat, Wild plant response rating (0 to 100 scale) [19, 31]: 0
Pigweed, Palmer plant response rating (0-100) [20, 30]: 0
Pigweed, Palmer plant response rating (0 to 100 scale) [20, 31]: 0
Ragweed plant response rating (0-100) [21, 30]: 0
Ragweed plant response rating (0 to 100 scale) [21, 31]: 0
Ryegrass, Italian plant response rating (0-100) [22, 30]: 0
Ryegrass, Italian plant response rating (0 to 100 scale) [22, 31]: 0
Soybean plant response rating (0-100) [23, 30]: 0
Soybean plant response rating (0 to 100 scale) [23, 31]: 0
Wheat plant response rating (0-100) [24, 30]: 0
Wheat plant response rating (0 to 100 scale) [24, 31]: 0
Plant response rating, Barnyardgrass (0 to 100 scale, 0 is no effect and 100 is complete control) [25]: 0
Plant response rating, Ducksalad (0 to 100 scale, 0 is no effect and 100 is complete control) [26]: 0
Plant response rating, Rice (0 to 100 scale, 0 is no effect and 100 is complete control) [27]: 0
Plant response rating, Sedge, Umbrella (0 to 100 scale, 0 is no effect and 100 is complete control) [28]: 0
